Results: the supplement of paper PMC11061612

Legend:
[1] = test system: IMR-5 (Neuroblastoma); assay: combination Emax (second highest fraction inhibited in the dose matrix, 72 h); higher = more inhibition; extreme values may be limits of the assay
Procedure, shortened: (§1)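 After 24 hours at 37°C and 5% CO2 in 1536-well plates, cells in DMEM/F12 or RPMI plus 10% FBS received two-drug dose matrices for 72 hours. Viability came from CellTiter-Glo 2.0 luminescence and was scaled as inhibition, anchored at 0 by vehicle wells and at 1 by blank wells. Combination Emax is taken as the second-highest inhibition in the matrix, and Bliss excess as the observed combination effect less EA + EB − EA·EB, with EA and EB the single-agent effects.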

[2] = test system: OCUM-1 (Gastric Carcinoma); assay: as above
Procedure, shortened: as §1

[3] = test system: LC4-1 (B-Lymphoblastic Leukemia); assay: as above
Procedure, shortened: as §1

[4] = test system: EW-13 (Ewing's Sarcoma); assay: as above
Procedure, shortened: as §1

[5] = test system: BV-173 (Chronic Myelogenous Leukemia); assay: as above
Procedure, shortened: as §1

[6] = test system: DG-75 (Burkitt's Lymphoma); assay: as above
Procedure, shortened: as §1

[7] = test system: HSC-2 (Oral Cavity Carcinoma); assay: as above
Procedure, shortened: as §1

[8] = test system: KYSE-50 (Esophageal Squamous Cell Carcinoma); assay: Bliss excess, mean over the matrix (fraction); higher = more synergy
Procedure, shortened: as §1

[9] = test system: SNU-C1 (Colorectal Carcinoma); assay: as above
Procedure, shortened: as §1

[10] = test system: MFE-319 (Endometrial Carcinoma); assay: as above
Procedure, shortened: as §1

[11] = test system: HC-1 (Other Blood Carcinomas); assay: as above
Procedure, shortened: as §1

[12] = test system: EW-18 (Ewing's Sarcoma); assay: as above
Procedure, shortened: as §1

[13] = test system: KP-2 (Pancreatic Carcinoma); assay: as above
Procedure, shortened: as §1

[14] = test system: GOTO (Neuroblastoma); assay: as above
Procedure, shortened: as §1

[15] = test system: NCI-N87 (Gastric Carcinoma); assay: as above
Procedure, shortened: as §1

[16] = test system: EW-3 (Ewing's Sarcoma); assay: as above
Procedure, shortened: as §1

[17] = test system: U-87-MG (Glioblastoma); assay: as above
Procedure, shortened: as §1

[18] = test system: SCC-3 (B-Cell Non-Hodgkin's Lymphoma); assay: as above
Procedure, shortened: as §1

[19] = test system: NCI-H322M (Lung Adenocarcinoma); assay: as above
Procedure, shortened: as §1

[20] = test system: H-EMC-SS (Chondrosarcoma); assay: as above
Procedure, shortened: as §1
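Throughout, for Bliss excess, mean over the matrix: after 72 h of two-drug dosing.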

SMILES	combination Emax [1]	combination Emax [2]	combination Emax [3]	combination Emax [4]	combination Emax [5]	combination Emax [6]	combination Emax [7]	Bliss excess [8]	Bliss excess [9]	Bliss excess [10]	Bliss excess [11]	Bliss excess [12]	Bliss excess [13]	Bliss excess [14]	Bliss excess [15]	Bliss excess [16]	Bliss excess [17]	Bliss excess [18]	Bliss excess [19]	Bliss excess [20]
COc1nnc2ccc(N3CCC(c4ccc(OCCN5CCN(C)C(=O)[C@H]5C)cc4)CC3)nn12 [AZD5153] + Cc1c2c(nn1C)CSCc1cc(n(C)n1)CSc1cc(c3ccccc3c1)OCCCc1c(C(=O)O)n(C)c3c-2c(Cl)ccc13 [AZD5991] (first compound max 1 µM, 7x7, partner max 1 µM)	1	0.581	1	0.68	0.936	0.876	0.963	0.0144	-0.0376	-0.0227	0.0424	0.0235	0.0098	-0.0096	-0.0073	0.0114	0.0336	0.029	-0.0517	-0.0212
Cc1c2c(nn1C)CSCc1cc(n(C)n1)CSc1cc(c3ccccc3c1)OCCCc1c(C(=O)O)n(C)c3c-2c(Cl)ccc13 [AZD5991] + Cn1cnc2c(F)c(Nc3ccc(Br)cc3Cl)c(C(=O)NOCCO)cc21 [Selumetinib] (first compound max 1 µM, 7x7, partner max 3 µM)	0.983	0.895	1	0.338	0.938	0.112	0.907	-0.0049	0.0034	-0.0233	0.0827	0.002	0.137	0.0177	0.0633	-0.0435	-0.0073	0.0783	0.0308	-0.017
CN(CCO)CC[C@H](CSc1ccccc1)Nc1ccc(S(=O)(=O)NC(=O)c2ccc(N3CCC([C@@H](O)c4ccccc4-c4ccc(Cl)cc4)CC3)cc2)cc1S(=O)(=O)C(F)(F)F [AZD4320] + CCN(CCO)CCCOc1ccc2c(Nc3cc(CC(=O)Nc4cccc(F)c4)[nH]n3)ncnc2c1 [AZD2811] (first compound max 1 µM, 7x7, partner max 1 µM)	1	0.924	1	0.754	0.965	0.196	0.827	-0.0211	-0.0263	0.0841	0.173	-0.0795	0.0653	0.0053	0.0195	0.0814	-0.019	-0.0063	-0.0353	0.0545
CC(=O)c1c(C)c2cnc(Nc3ccc(N4CCNCC4)cn3)nc2n(C2CCCC2)c1=O [Palbociclib] + Cc1c2c(nn1C)CSCc1cc(n(C)n1)CSc1cc(c3ccccc3c1)OCCCc1c(C(=O)O)n(C)c3c-2c(Cl)ccc13 [AZD5991] (first compound max 10 µM, 7x7, partner max 1 µM)	0.902	0.285	0.937	0.488	0.88	0.717	0.696	-0.0658	-0.0562	-0.111	-0.152	-0.0135	-0.0445	0.0483	-0.0373	-0.0003	-0.0527	0.0284	-0.0174	0.0444
CN(CCO)CC[C@H](CSc1ccccc1)Nc1ccc(S(=O)(=O)NC(=O)c2ccc(N3CCC([C@@H](O)c4ccccc4-c4ccc(Cl)cc4)CC3)cc2)cc1S(=O)(=O)C(F)(F)F [AZD4320] + C1CN(CCC1(C(=O)N[C@@H](CCO)C2=CC=C(C=C2)Cl)N)C3=NC=NC4=C3C=CN4 [Capivasertib] (first compound max 1 µM, 7x7, partner max 3 µM)	0.788	0.861	1	0.677	0.962	0.266	0.362	-0.0344	-0.0886	-0.0081	-0.0058	-0.0124	-0.0583	-0.034	-0.103	-0.0687	-0.045	-0.0506	-0.0402	-0.0081
COc1nnc2ccc(N3CCC(c4ccc(OCCN5CCN(C)C(=O)[C@H]5C)cc4)CC3)nn12 [AZD5153] + C[C@@H]1COCCN1C2=NC(=NC(=C2)C3(CC3)[S@](=N)(=O)C)C4=C5C=CNC5=NC=C4 [AZD6738] (first compound max 1 µM, 7x7, partner max 10 µM)	1	0.641	0.975	0.831	0.95	0.909	0.79	0.0172	-0.0404	-0.0852	-0.0468	-0.0306	0.0565	-0.0422	-0.0135	-0.0647	0.0506	-0.0195	-0.102	-0.0001
CN(CCO)CC[C@H](CSc1ccccc1)Nc1ccc(S(=O)(=O)NC(=O)c2ccc(N3CCC([C@@H](O)c4ccccc4-c4ccc(Cl)cc4)CC3)cc2)cc1S(=O)(=O)C(F)(F)F [AZD4320] + C[C@@H]1COCCN1C2=NC(=NC(=C2)C3(CC3)[S@](=N)(=O)C)C4=C5C=CNC5=NC=C4 [AZD6738] (first compound max 1 µM, 7x7, partner max 10 µM)	1	0.914	1	0.887	0.953	0.768	0.925	-0.0537	-0.115	-0.0119	0.0127	-0.0539	-0.104	-0.0126	-0.0456	-0.0236	-0.0248	0.014	-0.0335	-0.0351
NC1(C(=O)N[C@@H](CCO)c2ccc(Cl)cc2)CCN(c2ncnc3[nH]ccc23)CC1 [Capivasertib] + CC(C)n1c(=O)n(C)c2cnc3cc(F)c(-c4ccc(OCCCN5CCCCC5)nc4)cc3c21 [AZD1390] (first compound max 10 µM, 7x7, partner max 0.3 µM)	0.161	0.571	0.465	0.28	0.51	0.38	0.447	-0.0723	-0.068	-0.0921	-0.0706	-0.084	-0.0612	-0.0465	-0.0223	-0.0908	-0.0703	-0.0169	-0.0166	-0.0296
Cn1cnc2c(F)c(Nc3ccc(Br)cc3Cl)c(C(=O)NOCCO)cc21 [Selumetinib] + C[C@@H]1COCCN1C2=NC(=NC(=C2)C3(CC3)[S@](=N)(=O)C)C4=C5C=CNC5=NC=C4 [AZD6738] (first compound max 10 µM, 7x7, partner max 10 µM)	1	0.951	0.91	0.623	0.947	0.807	0.569	0.0013	-0.0453	0.0065	-0.0743	-0.0471	0.121	0.0043	-0.0604	-0.0489	0.0075	0.0368	-0.0415	-0.0405
Cc1c2c(nn1C)CSCc1cc(n(C)n1)CSc1cc(c3ccccc3c1)OCCCc1c(C(=O)O)n(C)c3c-2c(Cl)ccc13 [AZD5991] + C[C@@H]1COCCN1C2=NC(=NC(=C2)C3(CC3)[S@](=N)(=O)C)C4=C5C=CNC5=NC=C4 [AZD6738] (first compound max 1 µM, 7x7, partner max 10 µM)	1	0.71	0.981	0.805	0.965	0.817	0.765	-0.0348	-0.0626	0.05	0.0639	-0.0141	0.0446	-0.0213	-0.0285	0.0207	-0.0241	0.0538	0.0012	0.0187
CC1(C)CCC(CN2CCN(c3ccc(C(=O)NS(=O)(=O)c4ccc(NCC5CCOCC5)c([N+](=O)[O-])c4)c(Oc4cnc5[nH]ccc5c4)c3)CC2)=C(c2ccc(Cl)cc2)C1 [Venetoclax] + C[C@@H](Nc1cc(F)cc(F)c1)c1cc(C(=O)N(C)C)cc2c(=O)cc(N3CCOCC3)oc12 [AZD8186] (first compound max 1 µM, 7x7, partner max 3 µM)	0.276	0.137	1	0.322	0.82	0.386	0.92	-0.0295	-0.0749	-0.0419	0.0693	0.0781	-0.0312	-0.0334	-0.111	0.0336	-0.117	0.0263	-0.0526	-0.0159
Cc1nc(Nc2ncc(C(=O)Nc3c(C)cccc3Cl)s2)cc(N2CCN(CCO)CC2)n1 [Dasatinib] + CC(=O)Nc1cccc(-n2c(=O)n(C3CC3)c(=O)c3c(Nc4ccc(I)cc4F)n(C)c(=O)c(C)c32)c1 [Trametinib] (first compound max 2 µM, 7x7, partner max 1 µM)	0.19	0.988	0.244	0	0.819	0.316	0.804	0.043	-0.0616	-0.108	-0.0813	-0.086	0.136	-0.0631	-0.0339	-0.0576	-0.0575	-0.0403	0.0004	0.0331
Cc1c2c(nn1C)CSCc1cc(n(C)n1)CSc1cc(c3ccccc3c1)OCCCc1c(C(=O)O)n(C)c3c-2c(Cl)ccc13 [AZD5991] + CN(C)CCCOc1ccc(-c2ccc3ncc4c(c3c2)n(C2CCOCC2)c(=O)n4C)cn1 [AZD0156] (first compound max 1 µM, 7x7, partner max 1 µM)	0.985	0.113	0.962	0.401	0.95	0.395	0.835	-0.0031	-0.0652	0.0347	-0.0479	-0.0213	-0.0125	-0.0418	0.0027	-0.0499	-0.0477	0.0027	-0.0017	-0.0106
